Measurements published in ChEMBL document CHEMBL5625215, “Antiproliferative activity of meso-substituted BODIPY photocages: Effect of electrophiles vs singlet oxygen” (Eur J Med Chem, 2023).
pIC50: −log10 of the molar value. Calls of active or inactive are those of the source. No cut-off for these calls is given here.

Columns and labels:
[1] = Fluorescence property of compound in CH3OH assessed as fluorescence quantum yield; assay type: physicochemical
MCF7 [2] = experiment: Antiproliferative activity against human MCF7 cells assessed as inhibition of cell growth incubated for 72 hrs under dark condition by MTT assay; assay type: functional, cell-based; conditions: MCF7, 72 h
MCF7 [3] = experiment: Antiproliferative activity against human MCF7 cells assessed as inhibition of cell growth incubated for 72 hrs under photoirradiation with 6 cool white lamps for 15 mins at 4,28 and 52 hrs after compound addition by MTT assay; assay type: functional, cell-based; conditions: MCF7, light or radiation study
NCI-H460 [4] = experiment: Antiproliferative activity against human NCI-H460 cells assessed as inhibition of cell growth incubated for 72 hrs under dark condition by MTT assay; assay type: functional, cell-based; conditions: NCI-H460, 72 h
NCI-H460 [5] = experiment: Antiproliferative activity against human NCI-H460 cells assessed as inhibition of cell growth incubated for 72 hrs under photoirradiation with 6 cool white lamps for 15 mins at 4,28 and 52 hrs after compound addition by MTT assay; assay type: functional, cell-based; conditions: NCI-H460, light or radiation study
HCT-116 [6] = experiment: Antiproliferative activity against human HCT-116 cells assessed as inhibition of cell growth incubated for 72 hrs under dark condition by MTT assay; assay type: functional, cell-based; conditions: HCT-116, 72 h
HCT-116 [7] = experiment: Antiproliferative activity against human HCT-116 cells assessed as inhibition of cell growth incubated for 72 hrs under photoirradiation with 6 cool white lamps for 15 mins at 4,28 and 52 hrs after compound addition by MTT assay; assay type: functional, cell-based; conditions: HCT-116, light or radiation study
[8] = Drug localization in cytoplasm of human NCI-H460 cells incubated for 30 mins by Hoechst 33342 staining based confocal microscopic analysis; assay type: ADME, subcellular; conditions: nci-h460, 0.5 h
[9] = Drug localization in nuclear membrane of human NCI-H460 cells incubated for 30 mins by Hoechst 33342 staining based confocal microscopic analysis; assay type: ADME, cell membranes; conditions: nci-h460, 0.5 h
[10] = Drug localization in golgi body of human NCI-H460 cells incubated for 30 mins by Hoechst 33342 staining based confocal microscopic analysis; assay type: ADME, subcellular; conditions: nci-h460, 0.5 h
[11] = Drug localization in endoplasmic reticulum of human NCI-H460 cells incubated for 30 mins by Hoechst 33342 staining based confocal microscopic analysis; assay type: ADME, subcellular; conditions: nci-h460, 0.5 h
[12] = Drug localization in lipid droplets of human NCI-H460 cells incubated for 30 mins by Hoechst 33342 staining based confocal microscopic analysis; assay type: ADME, subcellular, Lipid droplet; conditions: nci-h460, 0.5 h
NCI-H460 [13] = experiment: Induction of cell death in human NCI-H460 cells assessed as dye bleaching preincubated for 30 mins followed by light irradiation for 15 to 30 mins by Hoechst 33342 staining based confocal microscopic analysis; assay type: functional; conditions: time 45-60 min
NCI-H460 [14] = experiment: Induction of cell death in human NCI-H460 cells assessed as cell shrinkage preincubated for 30 mins followed by light irradiation for 15 to 30 mins by Hoechst 33342 staining based confocal microscopic analysis; assay type: functional; conditions: time 45-60 min
NCI-H460 [15] = experiment: Induction of cell death in human NCI-H460 cells assessed as shrinkage of nuclear volume preincubated for 30 mins followed by light irradiation for 15 to 30 mins by Hoechst 33342 staining based confocal microscopic analysis; assay type: functional; conditions: time 45-60 min
NCI-H460 [16] = experiment: Induction of cell death in human NCI-H460 cells assessed as membrane blebbing preincubated for 30 mins followed by light irradiation for 15 to 30 mins by Hoechst 33342 staining based confocal microscopic analysis; assay type: functional; conditions: time 45-60 min
[17] = Drug uptake in HEK293T cells by fluorescence microscopic analysis; assay type: ADME, cell-based; conditions: human, hek-293t
HEK-293T [18] = experiment: Induction of apoptosis in HEK293T cells assessed as dye bleaching irradiated with visible light by Hoechst 33342 staining based confocal microscopic analysis; assay type: toxicity, cell-based; conditions: human
HEK-293T [19] = experiment: Induction of apoptosis in HEK293T cells assessed as cell death irradiated with visible light by Hoechst 33342 staining based confocal microscopic analysis; assay type: toxicity; conditions: human
[20] = Absorption property of compound in CH3CN assessed as maximal wavelength by UV-vis spectrophotometer; assay type: physicochemical
[21] = Emission property of compound in CH3CN assessed as maximal wavelength by […]; assay type: physicochemical
[22] = Absorption property of compound in CH3CN assessed as maximal molar absorption coefficient by UV-vis spectrophotometer; assay type: physicochemical
[23] = Fluorescence property of compound in CH3CN assessed as fluorescence quantum yield by spectrofluorometric analysis; assay type: physicochemical
[24] = Induction of singlet oxygen production in CH3CN assessed as decrease in fluorescence intensity at 450 nm under photoirradiation with visible light and measured after 15 sec by DPBF based assay relative to control; assay type: functional; parameters: scale not given: the % may be the effect or the level left
[25] = Induction of singlet oxygen production in CH3CN assessed as decrease in fluorescence intensity at 450 nm under photoirradiation with visible light and measured after 30 sec by DPBF based assay relative to control; assay type: functional; parameters: scale not given: the % may be the effect or the level left
[26] = Induction of singlet oxygen production in CH3CN assessed as decrease in fluorescence intensity at 450 nm under photoirradiation with visible light and measured after 45 sec by DPBF based assay relative to control; assay type: functional; parameters: scale not given: the % may be the effect or the level left
[27] = Induction of singlet oxygen production in CH3CN assessed as singlet oxygen quantum yield at 450 nm under photoirradiation with visible light and measured after 15 to 60 sec by DPBF based assay; assay type: functional; conditions: time 15-60 sec
[28] = Cytotoxicity against HEK293T cells assessed as inhibition of cell growth incubated for 72 hrs under dark condition by MTT assay; assay type: toxicity, cell-based, HEK-293T; conditions: human
[29] = Cytotoxicity against HEK293T cells assessed as inhibition of cell growth incubated for 72 hrs under photoirradiation with 6 cool white lamps for 15 mins at 4,28 and 52 hrs after compound addition by MTT assay; assay type: toxicity, cell-based, HEK-293T; conditions: human
[30] = Cytotoxicity against human HaCaT cells assessed as inhibition of cell growth incubated for 72 hrs under dark condition by MTT assay; assay type: toxicity, cell-based
[31] = Cytotoxicity against human HaCaT cells assessed as inhibition of cell growth incubated for 72 hrs under photoirradiation with 6 cool white lamps for 15 mins at 4,28 and 52 hrs after compound addition by MTT assay; assay type: toxicity, cell-based
HCT-116 [32] = experiment: Induction of ROS generation in human HCT-116 cells at 5 uM incubated for 1 hrs under dark condition by DCFH-DA staining based fluorescence analysis; assay type: functional, cell-based
HCT-116 [33] = experiment: Induction of ROS generation in human HCT-116 cells assessed as increase in oxidative stress at 5 uM preincubated with compound for 1 hrs followed by photoirradiation with 6 cool white lamps by DCFH-DA staining based fluorescence analysis; assay type: functional, cell-based
[34] = Drug localization in cytoplasm of human NCI-H460 cells at 10 uM incubated for 30 mins by Hoechst 33342 staining based confocal microscopic analysis; assay type: ADME, subcellular; conditions: nci-h460, 0.5 h
[35] = Drug localization in nuclear membrane of human NCI-H460 cells at 10 uM incubated for 30 mins by Hoechst 33342 staining based confocal microscopic analysis; assay type: ADME, cell membranes; conditions: nci-h460, 0.5 h
[36] = Drug localization in golgi body of human NCI-H460 cells at 10 uM incubated for 30 mins by Hoechst 33342 staining based confocal microscopic analysis; assay type: ADME, subcellular; conditions: nci-h460, 0.5 h
[37] = Drug localization in endoplasmic reticulum of human NCI-H460 cells at 10 uM incubated for 30 mins by Hoechst 33342 staining based confocal microscopic analysis; assay type: ADME, subcellular; conditions: nci-h460, 0.5 h
[38] = Drug localization in lipid droplets of human NCI-H460 cells at 10 uM incubated for 30 mins by Hoechst 33342 staining based confocal microscopic analysis; assay type: ADME, subcellular, Lipid droplet; conditions: nci-h460, 0.5 h
NCI-H460 [39] = experiment: Induction of cell death in human NCI-H460 cells assessed as dye bleaching at 1 uM preincubated for 30 mins followed by light irradiation for 15 to 30 mins by Hoechst 33342 staining based confocal microscopic analysis; assay type: functional; conditions: time 45-60 min
NCI-H460 [40] = experiment: Induction of cell death in human NCI-H460 cells assessed as cell shrinkage at 1 uM preincubated for 30 mins followed by light irradiation for 15 to 30 mins by Hoechst 33342 staining based confocal microscopic analysis; assay type: functional; conditions: time 45-60 min
NCI-H460 [41] = experiment: Induction of cell death in human NCI-H460 cells assessed as shrinkage of nuclear volume at 1 uM preincubated for 30 mins followed by light irradiation for 15 to 30 mins by Hoechst 33342 staining based confocal microscopic analysis; assay type: functional; conditions: time 45-60 min
NCI-H460 [42] = experiment: Induction of cell death in human NCI-H460 cells assessed as membrane blebbing at 1 uM preincubated for 30 mins followed by light irradiation for 15 to 30 mins by Hoechst 33342 staining based confocal microscopic analysis; assay type: functional; conditions: time 45-60 min
[43] = Induction of singlet oxygen production in CH3CN assessed as decrease in fluorescence intensity at 455 nm under photoirradiation with visible light and measured after 15 sec by DPBF based assay relative to control; assay type: functional; parameters: scale not given: the % may be the effect or the level left
[44] = Induction of singlet oxygen production in CH3CN assessed as decrease in fluorescence intensity at 455 nm under photoirradiation with visible light and measured after 30 sec by DPBF based assay relative to control; assay type: functional; parameters: scale not given: the % may be the effect or the level left
[45] = Induction of singlet oxygen production in CH3CN assessed as decrease in fluorescence intensity at 455 nm under photoirradiation with visible light and measured after 45 sec by DPBF based assay relative to control; assay type: functional; parameters: scale not given: the % may be the effect or the level left
[46] = Induction of singlet oxygen production in CH3CN assessed as decrease in fluorescence intensity at 455 nm under photoirradiation with visible light and measured after 1 min by DPBF based assay relative to control; assay type: functional; parameters: scale not given: the % may be the effect or the level left
[47] = Induction of singlet oxygen production in CH3CN assessed as singlet oxygen quantum yield; assay type: functional

Row | Compound | pIC50 (MCF7 [2]) | pIC50 (MCF7 [3]) | pIC50 (NCI-H460 [4]) | pIC50 (NCI-H460 [5]) | pIC50 (HCT-116 [6]) | pIC50 (HCT-116 [7]) | Drug uptake [8] | Drug uptake [9] | Drug uptake [10] | Drug uptake [11] | Drug uptake [12] | Activity (NCI-H460 [13]) | Activity (NCI-H460 [14]) | Drug uptake [17] | Activity (HEK-293T [18]) | Activity (HEK-293T [19]) | Activity [20] [nm] | Activity [21] [nm] | Activity [22] [M⁻¹ cm⁻¹] | Activity [23] | other results
1 | CCN(CC)c1ccc2c(-c3ccccc3C(=O)O)c3ccc(=[N+](CC)CC)cc-3oc2c1.[Cl-] [RHODAMINE] | – | – | – | – | – | – | – | – | – | – | – | – | – | – | – | – | – | – | – | – | Activity [1]: 0.66
2 | CC(=O)OCc1ccccc1OCC1=C2C(C)=C(Br)C(C)=[N+]2[B-](C)(C)n2c(C)c(Br)c(C)c21 | 4.74 | 6.77 | 4.48 | 6.72 | 4.60 | 6.80 | Active | Active | Active | Active | Active | Active | Active | Active | Toxic | Toxic | 531 | 558 | 37724 | 0.043 | Activity (NCI-H460 [15]): Active; Activity (NCI-H460 [16]): Active
3 | COc1cccc(COC(C)=O)c1OCC1=C2C(C)=C(Br)C(C)=[N+]2[B-](C)(C)n2c(C)c(Br)c(C)c21 | ≤ 4.00 | 6.82 | < 4.00 | 6.64 | ≤ 4.00 | 6.72 | Active | Active | Active | Active | Active | Active | Active | Active | Toxic | Toxic | 530 | 559 | 59622 | 0.034 | Activity [24]: 63%; Activity [25]: 91.8%; Activity [26]: 99.9%; Activity [27]: 0.73; IC50 at 72 h [28]: ≥ 100000 nM; IC50 at 72 h [29]: 300 nM; IC50 at 72 h [30]: > 100000 nM; IC50 at 72 h [31]: 300 nM; Activity (NCI-H460 [15]): Active; Activity (NCI-H460 [16]): Active
4 | CC1=CC(C)=[N+]2C1=C(CO)c1c(C)cc(C)n1[B-]2(C)C | < 4.00 | 6.82 | < 4.00 | 6.77 | < 4.00 | 6.77 | – | – | – | – | – | – | – | Active | Toxic | Toxic | 505 | 517 | 88894 | 0.32 | IC50 at 72 h [28]: 38000 nM; IC50 at 72 h [29]: 300 nM; IC50 at 72 h [30]: 68000 nM; IC50 at 72 h [31]: 300 nM; Activity (HCT-116 [32]): inactive; Activity (HCT-116 [33]): Active; Drug uptake [34]: Active; Drug uptake [35]: Active; Drug uptake [36]: Active; Drug uptake [37]: Active; Drug uptake [38]: Active; Activity (NCI-H460 [39]): Active; Activity (NCI-H460 [40]): Active; Activity (NCI-H460 [41]): Active; Activity (NCI-H460 [42]): Active
5 | C1=Cc2nc1c(-c1ccccc1)c1ccc([nH]1)c(-c1ccccc1)c1nc(c(-c3ccccc3)c3ccc([nH]3)c2-c2ccccc2)C=C1 | – | – | – | – | – | – | – | – | – | – | – | – | – | – | – | – | – | – | – | – | Activity [43]: 43.3%; Activity [44]: 63%; Activity [45]: 84.2%; Activity [46]: 95.1%; Activity [47]: 0.5
